Experiment [1] can be described thus: phenyl-para-quinone writhing assay in mice (analgesia). In kind it is in vivo. The text has this: The compounds of the present invention are useful as analgesic agents due to their ability to alleviate pain in mammals. […] Exptl. Biol. Med., 95, 729 (1957)]. The analgesic activity of some of the compounds of the invention expressed in terms of percent inhibition of writhing is given in Table 1.
(In writhing tests, fewer writhes than in controls are read as antinociception.)

The nature of experiment [2]: antihypertensive activity in the spontaneous hypertensive rat by the indirect tail cuff method. In kind it is in vivo. Particulars: at 50 mg/kg p.o, treated orally for three days, drop measured on the third day. The method, then:
Antihypertensive activity is measured in the spontaneous hypertensive rat by the indirect tail cuff method. […] In this procedure a group of five animals is treated orally for three days with the test compound in relation to a control group of the same number. The drop in blood pressure is measured on the third day following administration.

Counter-ions that a name gives are not always drawn.

On to `CC1SCC(=O)N1CC#CCN1CCC(O)(c2ccccc2)CC1.O=C(O)C(=O)O` (stereo not shown) [2-Methyl-3-(4-(4-hydroxy-4-phenylpiperidino)-2-butynyl)-4-oxothiazolidine oxalate], for which the “% Inhibition of Writhing” value in experiment [1] (at 20 mg/kg s.c.) is 51%.

With `O=C(O)/C=C\C(=O)O.O=C(O)/C=C\C(=O)O.O=C1CSCN1CC#CCN1CCN(C(c2ccccc2)c2ccc(Cl)cc2)CC1` (stereo not shown) [3-(4-(1-(4-Chlorobenzhydryl)piperazino)-2-butynyl)-4-oxothiazolidine bis maleate], the “mm Hg decrease (decrease in mean arterial blood pressure)” value (from here on “mm Hg decrease”) in experiment [2] came to 28 mm Hg.

Consider `O=C1CSCN1CC#CCN1CCN(c2ccc(F)cc2)CC1` [3-(4-(1-(4-Fluorophenyl)piperazino)-2-butynyl-4-oxothiazolidine oxalate], for which, in experiment [2], the “mm Hg decrease” value is 71 mm Hg.

Take `O=C1CSCN1CC#CCN1CCN(c2ccncc2)CC1` [3-(4-(4-Pyridyl)piperazino)-2-butynyl)-4-oxothiazolidine sesquioxalate]: in experiment [2], the “mm Hg decrease” value was 30 mm Hg.

Consider `O=C1CSCN1CC#CCN1CCC(c2noc3cc(Cl)ccc23)CC1` [3-(4-[3-(4-piperidyl)-6-chloro-benzisoxazole]-2-butynyl)-4-oxothiazolidine oxalate], for which the “% Inhibition of Writhing” value in experiment [1] (at 20 mg/kg s.c.) was determined as 39%.

In the case of `COc1ccccc1N1CCN(CC#CCN2CSCC2=O)CC1` [3-[4-(1-(2-Methoxyphenyl)piperazino)-2-butynyl]-4-oxothiazolidine sesquioxalate], the “mm Hg decrease” value in experiment [2] is 51 mm Hg.

As to `O=C1CSC2(CCCC2)N1CC#CCN1CCN(C(c2ccccc2)c2ccc(Cl)cc2)CC1` (stereo not shown) [4-(4-(1-(4-Chlorobenzhydryl)piperazino)-2-butynyl)-1-thia-4-azaspiro[4.4]nonane-3-one trisoxalate], the “% Inhibition of Writhing” value in experiment [1] (at 20 mg/kg s.c.) was found to be 30%.

Take `N=C(N)NCCN1CCCCCCC1` [guanethidine, reference compound]: in experiment [2], the “mm Hg decrease” value was found to be 20 mm Hg.

As for `CC(C)Cc1ccc(C(C)C(=O)O)cc1` (stereo not shown) [ibuprofen, reference compound], the “% Inhibition of Writhing” value in experiment [1] (standard, at 10.4 mg/kg s.c.) is recorded as 50%.

With `CC(C)=CCN1CCC2(C)c3cc(O)ccc3CC1C2C` (stereo not shown) [pentazocine, reference compound], the “% Inhibition of Writhing” value in experiment [1] (standard, at 1.3 mg/kg s.c.) is given as 50%.

The record behind these values is US5034392A, “4-(3-(4-oxothiazolidinyl)butynylamines” (Hoechst-Roussel Pharmaceuticals Incorporated, priority 1990, dated 1991).
